This series in a line: Mouse plasma pharmacokinetics, single PO or IV dose. The conditions noted are these: for AUCinf / CL / Cmax / Half-life / Vss / CL/F / Tmax / V/F: mouse plasma; for bioavailability: po, read-out: Mouse F (oral bioavailability). Format: in vivo, female C57BL/6 mice. The text has this:
Studies were undertaken to determine the plasma pharmacokinetics of SJ733 and SJ311. These studies included: (i) single oral gavage (PO) or intravenous (IV) dose administration to female C57BL/6 mice; (ii) single PO or IV dose administration to male Sprague Dawley (SD) rats; (iii) single PO or IV dose administration to male beagle dogs; (iv) toxicokinetic (TK) study following single PO administration to male SD rats. The PO and IV formulation used for mouse studies at SJCRH was 1% hydroxypropyl-beta-cyclodextrin (w/v), 10% ethanol (v/v), 10% propylene glycol (v/v), 40% PEG-400 (v/v) and 39% PBS (pH 7.4) isotonic (v/v). Compounds were dosed orally as suspensions, and intravenously as filtered solutions. Compound concentrations were confirmed post filtration using UV spectroscopy. The IV formulation used for rat studies (Monash University) was the same as that used for mice. For PO dosing to rats (Monash University) at 2 mg/kg, a suspension formulation was used containing 0.5% (w/v) hydroxypropyl methylcellulose, 0.5% (v/v) benzyl alcohol and 0.4% (v/v) Tween 80. The formulation used for rat studies at SRI (PO, high dose) was the same as that used in mouse PK studies. The formulation for the high dose TK study at SRI was 0.5% methylcellulose in sterile water. The formulation used for dog studies was the same as that used in mouse PK studies. The PO and IV PK of SJ733 and SJ311 were studied in female C57BL/6 mice. Mice had access to water and food ad libitum throughout the pre- and post-dose sampling period. Doses were administered at 15 mg/kg for IV and 10–200 mg/kg for PO with 20 mice in each dosage group. Two samples were taken from each mouse, with the first sample being a retro-orbital bleed (~ 200 µL) at the indicated time point (5, 15, 30 min, 1, 4, 24 h) and the second being terminal cardiac puncture (~ 500 µL) at the indicated time point (usually 48 h). EDTA disodium was used as anticoagulant and added to whole blood (10% volume of EDTA for 1% w/v final concentration) followed by centrifugation at 13,000 rpm for 2 min. Plasma was collected and stored frozen at -20 °C until analysis. For studies at SJCRH, all blood samples were kept on wet ice after collection and processed to plasma within 30 min of collection. Plasma samples were kept on dry ice and transferred to ≤ − 20 °C until analysis. Mouse plasma samples were extracted via protein precipitation with cold acetonitrile. The detection of the SJ733, SJ311, and warfarin (IS) was conducted by LC–MS with SIR or LC–MS/MS with MRM detection. Aliquots (3 µL) were injected onto a Waters Acquity UPLC equipped with an ABI Sciex 6500 Qtrap MS/MS and separated using an Acquity BEH C18 column (50 × 2.1 mm, 1.7 µm) with a methanol–water gradient containing 0.1% formic acid. Plasma concentration time (Ct) data for SJ733 and SJ311 were grouped by nominal time point, and the mean Ct values were subjected to noncompartmental analysis (NCA) using Phoenix WinNonlin 8.1 (Certara USA, Inc., Princeton, NJ). For all experiments, the area under the Ct and first moment curves (AUC, AUMC) were estimated using the “linear up log down” method. The terminal phase was defined as at least three time points at the end of the Ct profile, and the elimination rate constant (Kel) was estimated using an unweighted log-linear regression of the terminal phase. The terminal elimination half-life (T1/2) was estimated as 0.693/Kel, and the AUC from time 0 to infinity ([…]) was estimated as the AUC to the last time point (AUClast) + Clast (predicted)/Kel with the […] similarly calculated. Additional parameters estimated included observed maximum concentration (Cmax), time of Cmax (Tmax), concentration at the last observed time point (Clast), time of Clast (Tlast), and the apparent oral terminal volume of distribution (V/F). The apparent oral clearance (CL/F), systemic clearance (CL) and volume of distribution at steady state (Vss) were all estimated using standard formulae [19].

The mark [1] stands for this setting: mouse, single PO 100 mg/kg vs IV.
Where [2] appears, read: female, C57BL/6, mouse, plasma, mouse, summary over the oral doses studied.
Setting [3] is: female, C57BL/6, single IV 15 mg/kg, read-out: Half-life.

Read-outs that look alike come from different tables or passages of the source.

For `N#Cc1cc(NC(=O)C2c3ccccc3C(=O)N(CC(F)(F)F)C2c2cn[nH]c2)ccc1F` (racemic) [(r)-SJ311], under “single IV 15 mg/kg”, the AUCinf worked out at 20.7 µM·h, the CL stood at 27.2 mL/min/kg, the Cmax (usually the peak of the concentration-time curve) came out at 13.4 µM and the Half-life is reported as 1.56 h. Also, the Vss (single IV 15 mg/kg) was determined as 2.11 L/kg. Besides, where the note is “single PO 100 mg/kg”, the AUCinf was 42 µM·h; the CL/F (as a rule, clearance divided by bioavailability, as obtained after extravascular dosing) turned out to be 89 mL/min/kg; the Cmax was 10.5 ± 5.3 µM; the Half-life was determined as 4.20 h. Where the note is “single PO 100 mg/kg”, the Tmax (as a rule, the time from dosing to the highest level) turned out to be 0.5 h and the V/F is listed as 32.4 L/kg. The F under setting [1] is 23.1%.

Under “single IV 15 mg/kg”, `N#Cc1cc(NC(=O)C2c3ccccc3C(=O)N(CC(F)(F)F)C2c2cccnc2)ccc1F` (racemic) [(r)-SJ733] registered an AUCinf of 10.8 µM·h, a CL of 49.7 mL/min/kg, a peak concentration (Cmax) of 11.3 µM and a Half-life of 1.52 h. Besides, the Vss (single IV 15 mg/kg) was determined as 2.41 L/kg. Under “single PO 50 mg/kg”, this compound had an AUCinf of 28 µM·h, a CL/F of 67 mL/min/kg, a Cmax of 10.1 ± 4.5 µM and a Half-life of 1.72 h. For the setting “single PO 50 mg/kg”, the Tmax came to 0.5 h. Under “single PO 200 mg/kg”, the AUCinf amounted to 155.7 µM·h, the CL/F was determined as 54.2 mL/min/kg, the concentration peaked (Cmax) at 12.7 ± 3.2 µM and the Half-life came to 14.1 h. Also, for the setting “single PO 200 mg/kg”, the Tmax was 5 h and the V/F amounted to 3.23 L/kg. The compound further came in with a F (mouse, single PO 50 mg/kg vs IV) of 70%. For the same compound, the F (mouse, single PO 200 mg/kg vs IV) was found to be 98%.

As for `N#Cc1cc(NC(=O)[C@H]2c3ccccc3C(=O)N(CC(F)(F)F)[C@@H]2c2cccnc2)ccc1F` (racemic) [SJ733], the bioavailability (commonly the share of a dose that reaches the circulation, judged against a reference dose that is usually intravenous) under setting [2] lay within 65 to 81%. In addition, the clearance (female, C57BL/6, mouse, plasma, observed in mice, read-out: in vivo clearance (converted)) was about 50 mL/min/kg. In addition, the Half-life under setting [3] was 1.38 to 1.65 h.

Where the note is “single PO 10 mg/kg”, `N#Cc1cc(NC(=O)[C@H]2c3ccccc3C(=O)N(CC(F)(F)F)[C@@H]2c2cccnc2)ccc1F` [(+)-SJ733] gave an AUCinf of 4.27 µM·h, a CL/F of 83.3 mL/min/kg, a Cmax of 1.38 ± 0.21 µM and a Half-life of 3.63 h. Under “single PO 10 mg/kg”, the Tmax worked out at 0.5 h and the V/F was 26.2 L/kg. Where the note is “single PO 100 mg/kg”, this compound yielded an AUCinf of 53 µM·h, a CL/F of 67 mL/min/kg, a Cmax of 11.7 ± 1.2 µM and a Half-life of 3.17 h. Also, the Tmax (single PO 100 mg/kg) turned out to be 0.5 h. The compound also returned a F (mouse, single PO 10 mg/kg vs IV) of 65%. The F under setting [1] turned out to be 80.8%.

As to `N#Cc1cc(NC(=O)[C@H]2c3ccccc3C(=O)N(CC(F)(F)F)[C@@H]2c2cn[nH]c2)ccc1F` [SJ311], under setting [2], the bioavailability fell in the range of 22 to 23%. Under setting [3], the Half-life is 1.38 to 1.56 h. Also, under “mouse, summary over the oral doses studied”, the “Mouse F (oral bioavailability)” value was 23%.
